Data reported in the Deep4Chem optical property database.

Assay: solvent given as SMILES

N#CC1=c2c3cccc4cccc(c43)n2[B-](F)(F)[n+]2ccccc21
emission maximum (in C1CCOC1): 530 nm
emission maximum (in CC#N): 527 nm
emission maximum (in CCCCCC): 530 nm
emission maximum (in Cc1ccccc1): 535 nm
emission maximum (in ClCCl): 530 nm

FC(F)(F)c1ccc(/C=C2\C=C(c3ccccc3)C=C2c2ccccc2)cc1
emission maximum (in C1CCOC1): 516 nm

CCCCOc1ccc(-c2cc(-c3ccc(OCCCC)cc3)c3ccc4c(-c5ccc(OCCCC)cc5)cc(-c5ccc(OCCCC)cc5)c5ccc2c3c54)cc1
emission maximum (in ClC(Cl)Cl): 433 nm

CCCCN1/C(=C\c2c(-c3ccc(N(C)C)cc3)c(=O)c2=O)C=Cc2ccccc21
emission maximum (in C1CCCCC1): 428 nm
emission maximum (in Cc1ccccc1): 435 nm
emission maximum (in ClCCl): 585 nm

N#Cc1c(N2CCCCC2)cc(-c2cccc3ccccc23)c2c1-c1ccccc1C2
emission maximum (in C1CCOC1): 442 nm

CSc1ccc(C#Cc2ccc(C#Cc3ccc(C#Cc4ccccc4C#N)cc3C#N)cc2C#N)cc1
emission maximum (in ClC(Cl)Cl): 455 nm

CC[n+]1c(C=C2C(=O)C(C=C3N(C)c4ccccc4C3(C)C)=C2[O-])sc2ccccc21
emission maximum (in CO): 651 nm
emission maximum (in ClC(Cl)Cl): 666 nm

COc1ccc(C#Cc2c3cc4ccccc4cc3c(C#Cc3ccc(OC)cc3)c3cc4ccccc4cc23)cc1
emission maximum (in ClCCl): 706 nm

COc1ccc(-c2cc(B(c3c(C)cc(C)cc3C)c3c(C)cc(C)cc3C)c(-c3sc(-c4ccc(OC)cc4)cc3P(=O)(c3ccccc3)c3ccccc3)s2)cc1
emission maximum (in CO): 586 nm

Cc1ccc2c(c1)C(c1ccccc1)(c1ccccc1)c1cc(C)ccc1N2c1cc(C(C)C)c(B2c3ccccc3Sc3ccccc32)c(C(C)C)c1
emission maximum (in Cc1ccccc1): 487 nm
emission maximum (in O=P(c1ccccc1)(c1ccccc1)c1ccc2oc3ccc(P(=O)(c4ccccc4)c4ccccc4)cc3c2c1): 485 nm

COc1cc2c(cc1OC)C1=C[C@H](c3ccc(C)cc3)C3(C(C#N)=C(C#N)N1CC2)c1ccccc1-c1ccccc13
emission maximum (in ClCCl): 403 nm

CC1=CC(C)=[N+]2C1=C(c1c3ccccc3cc3ccccc13)c1c(C)cc(C)n1[B-]2(F)F
emission maximum (in CC#N): 512 nm
emission maximum (in CCCCCC): 515 nm
emission maximum (in CCO): 513 nm
emission maximum (in CN(C)C=O): 518 nm
emission maximum (in Cc1ccccc1): 521 nm
emission maximum (in ClCCl): 517 nm

CN1C(=O)/C(=C/c2ccncc2)N=C1/C=C/c1ccccc1
emission maximum (in C1COCCO1): 546 nm
emission maximum (in CC#N): 550 nm
emission maximum (in CCO): 550 nm
emission maximum (in CCOC(C)=O): 544 nm
emission maximum (in O): 560 nm

C(=C\c1ccccn1)/c1ccc(N(c2ccc(/C=C/c3ccccn3)cc2)c2ccc(-c3nc4ccccc4nc3-c3ccc(N(c4ccc(/C=C/c5ccccn5)cc4)c4ccc(/C=C/c5ccccn5)cc4)cc3)cc2)cc1
emission maximum (in C1CCOC1): 548 nm
emission maximum (in Cc1ccccc1): 533 nm

Cc1ccccc1-c1c2ccc(=[N+]3CCCCC3)cc-2oc2cc(N3CCCCC3)ccc12
emission maximum (in CCO): 584 nm
emission maximum (in ClCCl): 582 nm

Cc1cc(C)c(B(c2cc3ccc4cccc5ccc(c2)c3c45)c2c(C)cc(C)cc2C)c(C)c1
emission maximum (in Cc1ccccc1): 434 nm

C#CCNC1=C2C(C)=CC(C)=[N+]2[B-](F)(F)n2c(C)cc(C)c21
emission maximum (in C1CCCCC1): 501.5 nm
emission maximum (in CC(C)=O): 496 nm
emission maximum (in CCOC(C)=O): 497 nm
emission maximum (in CO): 496 nm
emission maximum (in OCC(F)(F)F): 494.5 nm

Cc1ccc(-c2cc(-c3ccc(N(C)C)cc3)c3c(N)nc(N4CCCC4)c(C#N)c3n2)cc1
emission maximum (in CC#N): 514 nm
emission maximum (in CC(C)=O): 511 nm
emission maximum (in CC(C)O): 506 nm
emission maximum (in CO): 517 nm
emission maximum (in ClC(Cl)Cl): 496 nm
emission maximum (in ClCCl): 503 nm
emission maximum (in c1ccccc1): 500 nm

C(=N\c1ccc(-c2cn3nc(-c4cccs4)sc3n2)cc1)/c1c2ccccc2cc2ccccc12
emission maximum (in ClC(Cl)Cl): 526 nm

Cc1ccc(C2=C3C=C(I)C=[N+]3[B-](F)(F)n3cccc32)cc1
emission maximum (in C1CCCCC1): 540 nm
emission maximum (in CC#N): 546 nm
emission maximum (in CCO): 547 nm
emission maximum (in CCOC(C)=O): 543 nm
emission maximum (in CO): 546.5 nm
emission maximum (in OCC(F)(F)F): 538.5 nm
